According to patent publication US6737383B1, “Herbicidal oxadiazolidines” (priority 1999, dated 2004):

How the values were obtained:
rape = test: Test B pre/postemergence rape; assay type: in vivo, Brassica napus
How it was run: (§1)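 Herbicidal effect was estimated by eye on a ten-point control scale after plants spent twelve to sixteen days in a greenhouse following soil or foliar treatment. Foliar sprays targeted plants at one to four leaves; all doses were formulated in a non-phytotoxic solvent with surfactant.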

sugar beet = test: Test B pre/postemergence sugar beet; assay type: in vivo, Beta vulgaris
How it was run: as §1

cocklebur = test: Test B pre/postemergence cocklebur; assay type: in vivo, Xanthium strumarium
How it was run: as §1

bamyardgrass = test: Test B flood test barnyardgrass; assay type: in vivo, Echinochloa crus-galli
How it was run: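 Read-out is a visual response score from 0 (no effect) to 10 (complete control), assigned by comparison with untreated controls. Treatment was applied at the 2-leaf stage, and plants stayed in the greenhouse for twelve to sixteen days before scoring.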

[1] = Preemergence, Rate 62 g/ha, scale of 0 to 10 where 0 is no effect and 10 is complete control
[2] = Preemergence, Rate 250 g/ha, scale of 0 to 10 where 0 is no effect and 10 is complete control
[3] = Preemergence, Rate 500 g/ha, scale of 0 to 10 where 0 is no effect and 10 is complete control
[4] = Rate 62 g/ha, Postemergence, scale of 0 to 10 where 0 is no effect and 10 is complete control
[5] = Rate 125 g/ha, Postemergence, scale 0 to 10
[6] = Rate 125 g/ha, Preemergence, scale of 0 to 10 where 0 is no effect and 10 is complete control
[7] = Rate 500 g/ha, Postemergence, scale 0 to 10, 0 no effect, 10 complete control
[8] = Rate 62 g/ha, headed Pre-emergence (flood test species), scale 0 to 10 (0 no effect, 10 complete control)
[9] = Rate 125 g/ha, Pre-emergence, flood test species, scale 0 to 10 where 0 is no effect and 10 is complete control
[10] = Rate 250 g/ha, Pre-emergence, flood-test species, scale 0 to 10, 0 is no effect, 10 is complete control
[11] = Rate 500 g/ha, Pre-emergence, flood test species, scale 0 to 10 (0 no effect, 10 complete control)
[12] = Postemergence, Rate 250 g/ha, scale 0 to 10
[13] = Preemergence, Rate 125 g/ha, scale of 0 to 10 where 0 is no effect and 10 is complete control
[14] = Preemergence, Rate 250 g/ha, scale 0 to 10, 0 is no effect, 10 is complete control
[15] = Preemergence, Rate 500 g/ha, scale 0 to 10, 0 is no effect, 10 is complete control
[16] = Rate 62 g/ha, Postemergence, scale 0 to 10 (0 no effect, 10 complete control)
[17] = Rate 125 g/ha, Postemergence, scale 0 to 10, 0 is no effect, 10 is complete control
[18] = Postemergence, Rate 125 g/ha, scale of 0 to 10 where 0 is no effect and 10 is complete control
[19] = Preemergence, Rate 62 g/ha, scale 0 to 10 (0 no effect, 10 complete control)
[20] = Preemergence, Rate 125 g/ha, 0 is no effect, 10 is complete control
[21] = Preemergence, Rate 500 g/ha, scale 0 to 10 (0 no effect, 10 complete control)
[22] = Rate 250 g/ha, Postemergence, scale 0 to 10, 0 is no effect, 10 is complete control
[23] = Rate 125 g/ha, Postemergence, scale of 0 to 10 where 0 is no effect and 10 is complete control
[24] = Rate 250 g/ha, Postemergence, scale of 0 to 10 where 0 is no effect and 10 is complete control

COc1cc(C)cc(C)c1-n1c(=O)on(C(=O)N(c2ccc(F)cc2F)C(C)C)c1=O [Compound 223]
0: Rape plant response rating (rape; [1]) | Rape plant response rating (rape; [2]) | Plant response rating, Rape (rape; [3]) | Rape plant response rating (rape; [4]) | Rape plant response rating (rape; [5]) | Rape plant response rating (rape; [6]) | Plant response rating (0 to 10; 0 is no effect, 10 is complete control), Rape (rape; Rate 250 g/ha, Postemergence) | Rape plant response rating (rape; [7]) | Sugarbeets plant response rating (sugar beet; [1]) | Sugarbeets plant response rating (sugar beet; [2]) | Plant response rating, Sugarbeets (sugar beet; [3]) | Sugarbeets plant response rating (sugar beet; [4]) | Sugarbeets plant response rating (sugar beet; [6]) | Cocklebur plant response rating (cocklebur; [1]) | Cocklebur plant response rating (cocklebur; [2]) | Plant response rating, Cocklebur (cocklebur; [3]) | Cocklebur plant response rating (cocklebur; [4]) | Cocklebur plant response rating (cocklebur; [5]) | Cocklebur plant response rating (cocklebur; [6]) | Plant response rating (0 to 10; 0 is no effect, 10 is complete control), Cocklebur (cocklebur; Rate 250 g/ha, Postemergence) | Barnyardgrass plant response rating (bamyardgrass; [8]) | Barnyardgrass plant response rating (bamyardgrass; [9]) | Barnyardgrass plant response rating (bamyardgrass; [10]) | Barnyardgrass plant response rating (bamyardgrass; [11])
3: Sugarbeets plant response rating (sugar beet; [7])
1: Sugarbeets plant response rating (sugar beet; [5])
2: Plant response rating (0 to 10; 0 is no effect, 10 is complete control), Sugarbeets (sugar beet; Rate 250 g/ha, Postemergence) | Cocklebur plant response rating (cocklebur; [7])

CC(C)N(C(=O)n1oc(=O)n(CCCl)c1=O)c1ccccc1 [Compound 469]
6: Plant response rating, Sugarbeets (sugar beet; [1])
10: Rape plant response rating (rape; [14]) | Rape plant response rating (rape; [15]) | Sugarbeets plant response rating (sugar beet; [15])
3: Cocklebur plant response rating (cocklebur; Postemergence, Rate 500 g/ha, scale of 0 to 10 where 0 is no effect and 10 is complete control)
8: Plant response rating, Sugarbeets (sugar beet; [13]) | Sugarbeets plant response rating (sugar beet; [14])
2: Plant response rating, Rape (rape; [13]) | Sugarbeets plant response rating (sugar beet; [12])
0: Rape plant response rating (rape; [12]) | Plant response rating, Rape (rape; [1]) | Rape plant response rating (rape; [16]) | Rape plant response rating (rape; [17]) | Sugarbeets plant response rating (sugar beet; [16]) | Sugarbeets plant response rating (sugar beet; [17]) | Cocklebur plant response rating (cocklebur; [12]) | Plant response rating, Cocklebur (cocklebur; [1]) | Plant response rating, Cocklebur (cocklebur; [13]) | Cocklebur plant response rating (cocklebur; [14]) | Cocklebur plant response rating (cocklebur; [15]) | Cocklebur plant response rating (cocklebur; [16]) | Cocklebur plant response rating (cocklebur; [17]) | Plant response rating, Barnyardgrass (0 to 10 scale, 0 is no effect, 10 is complete control) (bamyardgrass; Rate 62 g/ha, flood test species, Pre-emergence, visual evaluation after twelve to sixteen days) | Barnyardgrass plant response rating (0 to 10 scale, 0 is no effect, 10 is complete control) (bamyardgrass; Rate 125 g/ha, under heading Pre-emergence, flood test species, visual evaluation after twelve to sixteen days) | Barnyardgrass plant response rating (bamyardgrass; Rate 250 g/ha, Pre-emergence (flood test species), scale 0 to 10, 0 is no effect, 10 is complete control) | Barnyardgrass plant response rating (bamyardgrass; [11])

CC(C)N(C(=O)n1oc(=O)n(-c2ccnn2C)c1=O)c1ccc(F)cc1 [Compound 124]
0: Rape plant response rating (rape; [18]) | Rape plant response rating (rape; [19]) | Rape plant response rating (0 to 10 scale) (rape; [20]) | Rape plant response rating (rape; [14]) | Rape plant response rating (rape; [21]) | Rape plant response rating (rape; [4]) | Plant response rating, Rape (rape; [22]) | Rape plant response rating (rape; [7]) | Sugarbeets plant response rating (sugar beet; [18]) | Sugarbeets plant response rating (sugar beet; [19]) | Sugarbeets plant response rating (0 to 10 scale) (sugar beet; [20]) | Sugarbeets plant response rating (sugar beet; [14]) | Sugarbeets plant response rating (sugar beet; [21]) | Sugarbeets plant response rating (sugar beet; [4]) | Plant response rating, Sugarbeets (sugar beet; [22]) | Sugarbeets plant response rating (sugar beet; [7]) | Cocklebur plant response rating (cocklebur; [18]) | Cocklebur plant response rating (cocklebur; [19]) | Cocklebur plant response rating (cocklebur; [14]) | Cocklebur plant response rating (cocklebur; [21]) | Cocklebur plant response rating (cocklebur; [4]) | Plant response rating, Cocklebur (cocklebur; [22]) | Cocklebur plant response rating (cocklebur; [7]) | Barnyardgrass plant response rating (bamyardgrass; Postemergence (flood test species), Rate 125 g/ha, scale of 0 to 10 where 0 is no effect and 10 is complete control) | Barnyardgrass plant response rating (bamyardgrass; Postemergence, Rate 62 g/ha, scale 0 to 10, 0 is no effect, 10 is complete control) | Plant response rating, Barnyardgrass (bamyardgrass; Rate 250 g/ha, Postemergence (flood test), scale 0 to 10, 0 is no effect, 10 is complete control) | Barnyardgrass plant response rating (bamyardgrass; Rate 250 g/ha, headed Pre-emergence (flood test species), scale 0 to 10 (0 no effect, 10 complete control)) | Plant response rating, Barnyardgrass (bamyardgrass; Rate 500 g/ha, headed Pre-emergence (flood test species), scale 0 to 10 (0 no effect, 10 complete control)) | Barnyardgrass plant response rating (bamyardgrass; Rate 500 g/ha, listed under Postemergence (flood test species), scale 0 to 10, 0 no effect, 10 complete control) | Barnyardgrass plant response rating (bamyardgrass; Rate 1000 g/ha, Pre-emergence (as headed), scale 0 to 10) | Barnyardgrass plant response rating (bamyardgrass; Rate 2000 g/ha, Pre-emergence (as headed), scale 0 to 10, 0 no effect, 10 complete control)

Cc1ccccc1-n1c(=O)on(C(=O)N(c2ccc(OC(F)(F)F)cc2)C(C)C)c1=O [Compound 300]
0: Rape plant response rating (rape; [1]) | Rape plant response rating (0 to 10 scale) (rape; Preemergence, Rate 125 g/ha) | Rape plant response rating (rape; [2]) | Rape plant response rating (rape; [3]) | Rape plant response rating (rape; [16]) | Rape plant response rating (rape; [23]) | Plant response rating, Rape (rape; [24]) | Sugarbeets plant response rating (sugar beet; [1]) | Sugarbeets plant response rating (0 to 10 scale) (sugar beet; Preemergence, Rate 125 g/ha) | Sugarbeets plant response rating (sugar beet; [2]) | Sugarbeets plant response rating (sugar beet; [3]) | Sugarbeets plant response rating (sugar beet; [16]) | Sugarbeets plant response rating (sugar beet; [23]) | Plant response rating, Sugarbeets (sugar beet; [24]) | Cocklebur plant response rating (cocklebur; [1]) | Cocklebur plant response rating (0 to 10 scale) (cocklebur; Preemergence, Rate 125 g/ha) | Cocklebur plant response rating (cocklebur; [2]) | Cocklebur plant response rating (cocklebur; [16]) | Cocklebur plant response rating (cocklebur; [23]) | Plant response rating, Cocklebur (cocklebur; [24]) | Cocklebur plant response rating (cocklebur; [7]) | Barnyardgrass plant response rating (bamyardgrass; [8]) | Barnyardgrass plant response rating (bamyardgrass; [9]) | Barnyardgrass plant response rating (bamyardgrass; [10]) | Barnyardgrass plant response rating (bamyardgrass; [11])
